Laboratory results: patent US7247734B2 (Vernalis (Cambridge) Limited, priority 2001, dated 2007)

Legend:
yeast HSP90 = molecular target: T1, yeast HSP90 (Saccharomyces cerevisiae, UniProt P02829); experiment: Malachite green HSP90 ATPase assay; type: biochemical; details: activity range, ATPase assay; read-out: ATPase IC50
T1 construct: made in house; host or cells: E. coli
Excerpt: Two methods have been developed to measure the intrinsic ATPase activity of HSP90, using yeast HSP90 as a model system. The first method utilises a regenerating coupled enzyme assay. The second assay, based on the use of malachite green for the measurement of inorganic phosphate, was designed for high throughput screening (HTS) to identify novel HSP90 inhibitor drug candidates.
Colorimetric assays for the determination of phosphate, based on the formation of a phosphomolybdate complex, can be carried out in a few steps with inexpensive reagents and are well suited to the automation required for high throughput screening (see, e.g., Cogan et al., 1999). Enzymes that release inorganic phosphate are assayed using the reaction of the cationic dye, malachite green, with the a complex formed by a reaction of the inorganic phosphate with molybdate to generate a blue-green colour with an absorbance maximum at 610 nm (see, e.g., Baykov et al., 1988; Harder et al., 1994; Maehama et al., 2000). The method has been used in both high throughput (see, e.g., Rumsfeld et al., 2000) and ultra-high throughput screening formats (see, e.g., Layery et al., 2001) for a variety of non-HSP90 ATPases. However, this method is complicated by the non-enzymatic hydrolysis of ATP in the presence of acidic malachite green reagent, causing an increase in colour (see, e.g., Chan et al., 1986; Henkel et al., 1988). This process is mediated by molybdate and can be overcome by the addition of sodium citrate immediately after the reagent (see, e.g., Lanzetta et al., 1979; Schirmer et al., 1998; Baginski et al., 1975). This modification has been adapted to the 96-well microtitre plate assay previously described for other ATPases (see, e.g., Lanzetta et al., 1979) to produce the following protocol for HSP90 ATPase, which is suitable for high throughput screening.
Chemicals are of the highest purity commercially available and all aqueous solutions are made up in AR water. Because of the need to minimise contamination with inorganic phosphate, precautions should be taken with solutions and apparatus used in the assays. Glassware and pH meters are rinsed with double distilled or deionised water before use and, wherever possible, plastic ware should be used. Gloves are worn for all procedures. • (1) Immulon 96-well (Thermo Labsystems, Basingstoke, UK) or Cliniplate 384-well flat-bottomed polystyrene multiwell plates (Thermo Labsystems). • (2) Assay buffer of (a) 100 mM Tris-HCl, pH 7.4, (b) 20 mM KCl, (c) 6 mM MgCl2. Stored at 4° C. • (3) 0.0812% (w/v) malachite green (M 9636, Sigma Aldrich Ltd., Poole, UK). Stored at room temperature. • (4) 2.32% (w/v) polyvinyl alcohol USP (P 1097, Sigma Aldrich Ltd, Poole, UK) in boiling water (see Comment 1), allowed to cool, and stored at room temperature. • (5) 5.72% (w/v) ammonium molybdate in 6 M hydrochloric acid. Stored at room temperature. • (6) 34% (w/v) sodium citrate. Stored at room temperature. • (7) ATP, disodium salt, special quality (519979, Boehringer Mannheim, Lewes, UK). Stored at 4° C. • (8) E. coli expressed yeast HSP90 protein, purified >95% (see, e.g., Panaretou et al., 1998) and stored at −80° C. as 10 μl aliquots containing 0.5 mg of protein. Method
The following protocol was used: • (1) On the day of use, prepare the malachite green reagent from the stock solutions. Mix (a) 2 parts of malachite green, (b) 1 part of polyvinyl alcohol, (c) 1 part of ammonium molybdate, and (d) 2 parts of water. Initially, the reagent is a dark brown colour, but after standing at room temperature for about 2 h, this becomes a golden yellow colour and is ready for use. • (2) For the high throughput screening assays, the test compounds are dissolved at 200 μM in 2.0% DMSO and contained in daughter plates derived from the chemical libraries. Transfer 5 μl of each sample from the daughter plate to each well of the assay plate using automated equipment (see Comment 3). This represents a final concentration in the well of 40 μM.

HSP70 in HCT116 cells = experiment: Cell-based ELISA for HSP70 expression; set-up: species or system human; details: HCT116, 1 μM compound
Excerpt: Cell-based ELISA methods (see, e.g., Stockwell et al., 1999; Versteeg et al., 2000) offer several advantages for evaluating the pharmacodynamic effects of novel mechanism-based inhibitors and may be the method of choice for comparing inhibitors that are identified during the iterative process of lead identification and optimisation. The technique can be used to rapidly rank the effectiveness of compounds as well as to investigate the molecular mechanisms of their action. The increased sample throughput possible with ELISA means that compounds can be simultaneously studied in multiple replicates at different doses and exposure times. […] The assays are carried out directly on cells grown and treated in microtitre plates, thereby removing the necessity for preparing cell lysates. ELISA techniques can in theory be applied to any cellular protein or post-translational modification for which an antibody is available and results are at least semi-quantitative.
Chemicals are of the highest purity commercially available. • (1) Human colon tumour cell lines (e.g., HCT116 and HT29 from American Tissue Culture Collection, ATCC) grown in Dulbecco's modified Eagle's medium (DMEM) (CSSD, Institute of Cancer Research, London, UK) supplemented with […] glucose, 10% foetal bovine serum (FBS), 200 mM L-glutamine, and 5 ml non-essential amino acids in a humidified atmosphere of 5% CO2 at 37° C. • (2) 96 well Falcon clear microtitre tissue culture plates (BD Labware, Hospital Management and Supplies, Ltd., Northampton, UK). • (3) DMSO diluted in dH2O (8%). • (4) HSP90 inhibitors at required concentration dissolved in DMSO. • (5) Fixing solution (0.25% glutaraldehyde, 3% paraformaldehyde and 0.25% Triton-X 100) (all from Sigma Aldrich Ltd, Poole, UK). • (6) Blocking solution (5% dried milk (Marvel) in PBS) prepared daily. • (7) Anti HSP70 monoclonal antibody (SPA 810, Bioquote, York, UK). • (8) DELFIA® wash buffer, enhancement solution, assay buffer and Europium labelled anti-mouse IgG (1244–1330) (PerkinElmer Life Sciences, Milton Keynes, UK). • (9) BCA protein assay reagents (Perbio Science UK Ltd., Chester, UK). Method
Incubate at 37° for 30 min. • (6) Wash plates twice in PBS using an automated washer (Wellwash 5000 ten plate stacker-washer or Wellwash Ascent single plate washer, Thermo Labsystems, Basingstoke, UK). • (7) Block the plates by addition of blocking solution (100 μl) and incubate for 30 min. • (8) Add 100 μl primary antibody diluted to 0.95 μg/ml in PBS to each well and incubate plate for 1.5 h. Wash plates once with DELFIA® wash solution. • (9) Add 100 μl Europium labelled anti-mouse IgG diluted in DELFIA® assay buffer to 75 ng/ml and incubate for 1 hour. Wash plates once with DELFIA® wash solution as before. • (10) Add 100 μl DELFIA® enhancement solution to each well. • (11) Measure the fluorescence (615 nm) in Victor 2 1420 multilabel counter (Perkin Elmer Life Sciences, Milton Keynes, UK) using time-resolved measurement mode. • (12) Wash plates once with PBS and measure protein concentration by the addition of 200 μl BCA reagent to each well, shake for 1–2 min and incubate for 30 mins at 37° C. Read absorption at 570 nm. • (13) Express ELISA results by normalising to protein in the well (Eu counts (cpm) divided by OD@ 570 nm). Compare the effect of HSP90 inhibitors on HSP70 expression with DMSO treated controls. Comments • (1) Cells plated into 96 well plates are incubated in a plastic box to reduce evaporation from the outside wells. […]

HCT116 cells = experiment: Cellular protein by BCA assay after compound exposure (ELISA plates); type: cell-based, human; details: HCT116, 1 μM compound
Description: Incubate at 37° for 30 min. • (6) Wash plates twice in PBS using an automated washer (Wellwash 5000 ten plate stacker-washer or Wellwash Ascent single plate washer, Thermo Labsystems, Basingstoke, UK). • (7) Block the plates by addition of blocking solution (100 μl) and incubate for 30 min. • (8) Add 100 μl primary antibody diluted to 0.95 μg/ml in PBS to each well and incubate plate for 1.5 h. Wash plates once with DELFIA® wash solution. • (9) Add 100 μl Europium labelled anti-mouse IgG diluted in DELFIA® assay buffer to 75 ng/ml and incubate for 1 hour. Wash plates once with DELFIA® wash solution as before. • (10) Add 100 μl DELFIA® enhancement solution to each well. • (11) Measure the fluorescence (615 nm) in Victor 2 1420 multilabel counter (Perkin Elmer Life Sciences, Milton Keynes, UK) using time-resolved measurement mode. • (12) Wash plates once with PBS and measure protein concentration by the addition of 200 μl BCA reagent to each well, shake for 1–2 min and incubate for 30 mins at 37° C. Read absorption at 570 nm. • (13) Express ELISA results by normalising to protein in the well (Eu counts (cpm) divided by OD@ 570 nm). Compare the effect of HSP90 inhibitors on HSP70 expression with DMSO treated controls. Comments • (1) Cells plated into 96 well plates are incubated in a plastic box to reduce evaporation from the outside wells. In addition, ELISA incubation steps are carried out in a 37° C. laboratory incubator and in a moist environment e.g., plastic box lined with damp tissue paper. • (2) All additions to the microtitre plate can be achieved using a multichannel pipette or for larger numbers of plates an automated dispenser such as a Multidrop (Thermo Labsytems, Basingstoke, UK). • (3) For convenience, if the effects of compounds are being studied at several time points the ELISA can be carried out in batches, plates being stored (in a container) at 4° C. following the fixation step. In this case the plates are washed only once following fixation and again immediately before the first ELISA step (step 6 above). In addition all the plates can be stored for subsequent protein estimation. • (4) Reproducibility of both the measured Europium counts and the protein measurements was between 10–15% (CV). • (5) DELFIA® reagents (see, e.g., Hemmila and Webb, 1997) have been routinely used in cell-based ELISAs. This endpoint provides high sensitivity and the time-resolved measurements reduce interference from non-specific fluorescence. However, it is also possible to use a horse radish peroxidase second antibody conjugate and either a calorimetric (e.g., tetramethylbenzidine) or chemiluminescent reagent (e.g., ECL reagent (Amersham Pharmacia Biotech, Little Chalfont, Bucks, UK) for endpoint measurement. • (6) It is recommended that a blank consisting of second-antibody only (i.e., no first antibody) together with an appropriate first antibody control (e.g., isotype matched IgG) are included in assays during the process of optimising reagent concentrations. Growth Inhibition Assay
The effect of various compounds of the present invention on the expression of the molecular marker HSP70 was determined using the cell-based ELISA and a specific monoclonal antibody to HSP70 in HCT116 cells, as described above. Cellular protein following compound exposure was determined using BCA assay as described in the method.

[1] = tested on: HCT116 human colon tumour cells; experiment: 96 h growth inhibition assay (SRB), HCT116; type: cell-based; details: Homo sapiens, HCT-116; HCT116, 96 h
Description: (§1) The growth inhibition assay employed was based on that described previously (Kelland et al., 1993). HCT116 and HT29 human colon tumour cells (American Tissue Culture Collection) were seeded into 96-well tissue culture plates (approximately 1600–2000 cells per well) and allowed to attach for 36 hours. Eight wells were treated with a single concentration from a range of compound concentrations and incubated for 96 hours. Cells were fixed using ice cold 10% trichloroacetic acid (TCA). Plates were then washed five times with water, air dried, and stained with 0.4% sulphorhodamine B (SRB) in 1% acetic acid for 10 minutes. The SRB stain was solubilised in 10 mM Tris-HCl and the absorbance measured at 540 nm using a Titertek Multiscan MCC/340 MKII plate reader (Flow Laboratories, IEC, Basingstoke, N.H.). The absorbance values correspond to total protein content and are used as a measure of cell growth.

[2] = tested on: HT29 human colon tumour cells; experiment: 96 h growth inhibition assay (SRB), HT29; type: cell-based; details: Homo sapiens, HT-29; HT29, 96 h
Description: as §1

T1 sequence (P02829 whole entry, looked up): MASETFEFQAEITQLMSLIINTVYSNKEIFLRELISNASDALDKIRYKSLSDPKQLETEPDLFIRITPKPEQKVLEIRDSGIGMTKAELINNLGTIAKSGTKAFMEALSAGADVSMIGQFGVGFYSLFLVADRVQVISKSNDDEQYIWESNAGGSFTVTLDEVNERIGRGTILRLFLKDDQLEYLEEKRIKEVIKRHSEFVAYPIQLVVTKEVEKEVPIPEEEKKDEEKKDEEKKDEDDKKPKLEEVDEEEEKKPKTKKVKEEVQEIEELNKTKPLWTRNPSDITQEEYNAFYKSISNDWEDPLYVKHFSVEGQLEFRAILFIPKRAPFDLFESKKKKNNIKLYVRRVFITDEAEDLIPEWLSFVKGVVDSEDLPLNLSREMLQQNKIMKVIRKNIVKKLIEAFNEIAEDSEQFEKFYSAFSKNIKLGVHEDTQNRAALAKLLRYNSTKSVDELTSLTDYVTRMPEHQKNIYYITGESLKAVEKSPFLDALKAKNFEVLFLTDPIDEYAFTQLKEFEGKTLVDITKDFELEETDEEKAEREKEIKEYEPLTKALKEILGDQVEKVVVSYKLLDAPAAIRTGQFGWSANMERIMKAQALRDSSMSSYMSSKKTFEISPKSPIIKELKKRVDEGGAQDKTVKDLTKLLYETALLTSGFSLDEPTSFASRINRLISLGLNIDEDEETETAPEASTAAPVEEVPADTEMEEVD

Row | SMILES | IC50 (yeast HSP90) [µM] | further results
1 | Oc1cc(O)c(-c2n[nH]cc2-c2ccncc2)cc1Cl [Example 175] | < 50 | –
2 | Cc1nc2cc(-c3c[nH]nc3-c3cc(Cl)c(O)cc3O)ccc2s1 [Example 176] | < 50 | –
3 | Oc1cc(O)c(-c2n[nH]cc2-c2cncnc2)cc1Cl [Example 177] | < 50 | –
4 | COc1ccc(-c2c(C)n[nH]c2-c2cc(C(=O)NN)c(O)cc2O)cc1 [Example 178] | > 50 | –
5 | COc1ccc(-c2c(-c3cc(Cl)c(O)cc3O)n[nH]c2Br)cc1 [Example 179, 4-[5-Bromo-4-(4-methoxy-phenyl)-1H-pyrazol-3-yl]-6-chloro-benzene-1,3-diol] | < 50 | –
6 | CNC(=O)c1ccc(-c2c[nH]nc2-c2cc(Cl)c(O)cc2O)cc1 [Example 180] | < 50 | –
7 | NC(=O)c1ccc(-c2c[nH]nc2-c2cc(Cl)c(O)cc2O)cc1 [Example 181] | < 50 | –
8 | O=C(O)c1ccc(-c2c[nH]nc2-c2cc(Cl)c(O)cc2O)cc1 [Example 182] | < 50 | –
9 | COc1ccc(-c2c(-c3ccc(CO)cc3O)n[nH]c2C)cc1 [Example 183] | > 50 | –
10 | COC1=C2C[C@@H](C)C[C@H](OC)[C@H](O)[C@@H](C)/C=C(\C)[C@H](OC(N)=O)[C@@H](OC)/C=C\C=C(/C)C(=O)NC(=CC1=O)C2=O [Geldanamycin, geldanamycin, reference compound] | – | % increase in HSP70 (Normalised Europium Counts compared to DMSO controls) (HSP70 in HCT116 cells; (48 h)): 270%; % increase in HSP70 (Normalised Europium Counts compared to DMSO controls) (HSP70 in HCT116 cells; (time not given)): 169%; Cellular Protein (% DMSO controls) (HCT116 cells; (48 h)): 46.3%; Cellular Protein (% DMSO controls) (HCT116 cells; (time not given)): 75.3%; IC50 [1]: 0.07 µM; IC50 [2]: 0.05 µM
